Results: US7994209B2, “3-phenoxymethylpyrrolidine compounds” (Theravance, Inc., priority 2009, dated 2011)

Legend:
hNET [1] = molecular target: T1, hNET (Homo sapiens, UniProt P23975); assay: hNET neurotransmitter uptake assay (3H-NE), Assay 2; assay type: cell-based; parameters: expressed in transfected cells; host or cells: HEK-293; details: norepinephrine reuptake inhibition, 3H-NE uptake, HEK-293 hNET cells (values without asterisk); read-out: NET pIC50 (converted)
Description: (§1) Cells were harvested by centrifugation at 1100 rpm for 5 minutes, washed once by resuspension in PBS, then centrifuged. The supernatant was discarded and the cell pellet resuspended, by gentle trituration, in room temperature Krebs-Ringer bicarbonate buffer containing HEPES (10 mM), CaCl2 (2.2 mM), ascorbic acid (200 μM) and pargyline (200 μM), pH 7.4.
(§2) Test compounds were incubated for 30 minutes at 37° C. with the respective cells, prior to addition of radiolabeled neurotransmitter, ^3H-5-HT (20 nM final concentration), ^3H-NE (50 nM final concentration) or ^3H-DA (100 nM final concentration).

hNET [2] = molecular target: T1, hNET; assay: hNET membrane radioligand binding assay (3H-nisoxetine), Assay 1
hSERT [3] = molecular target: T2, hSERT (Homo sapiens, UniProt P31645); assay: hSERT neurotransmitter uptake assay (3H-5-HT), Assay 2; assay type: cell-based; parameters: expressed in transfected cells; host or cells: HEK-293; details: serotonin reuptake inhibition, 3H-5-HT uptake, HEK-293 hSERT cells (values without asterisk); read-out: SERT pIC50 (converted)
T2 sequence (P31645 whole entry): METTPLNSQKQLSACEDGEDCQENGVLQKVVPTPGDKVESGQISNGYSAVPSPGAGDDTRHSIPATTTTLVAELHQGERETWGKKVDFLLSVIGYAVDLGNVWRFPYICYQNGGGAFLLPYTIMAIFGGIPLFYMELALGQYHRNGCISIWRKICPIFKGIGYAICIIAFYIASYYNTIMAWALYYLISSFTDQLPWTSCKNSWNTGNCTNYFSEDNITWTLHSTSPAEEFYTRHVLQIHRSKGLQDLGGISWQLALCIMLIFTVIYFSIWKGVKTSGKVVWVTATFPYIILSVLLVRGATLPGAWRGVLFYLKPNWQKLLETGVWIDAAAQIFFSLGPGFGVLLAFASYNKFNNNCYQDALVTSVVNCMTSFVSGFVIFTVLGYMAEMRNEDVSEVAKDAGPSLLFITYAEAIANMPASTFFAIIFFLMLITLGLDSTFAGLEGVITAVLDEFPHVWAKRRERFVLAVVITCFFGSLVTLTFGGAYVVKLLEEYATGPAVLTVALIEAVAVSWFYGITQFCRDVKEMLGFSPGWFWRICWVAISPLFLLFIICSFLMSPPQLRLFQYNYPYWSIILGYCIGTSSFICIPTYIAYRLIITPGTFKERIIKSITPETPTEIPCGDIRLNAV
Description: as §1, §2

hSERT [4] = molecular target: T2, hSERT; assay: hSERT membrane radioligand binding assay (3H-citalopram), Assay 1; details: SERT pKi, hSERT HEK-293 membranes, 1.0 nM 3H-citalopram; values given as lower bounds

T1 sequence (P23975 whole entry): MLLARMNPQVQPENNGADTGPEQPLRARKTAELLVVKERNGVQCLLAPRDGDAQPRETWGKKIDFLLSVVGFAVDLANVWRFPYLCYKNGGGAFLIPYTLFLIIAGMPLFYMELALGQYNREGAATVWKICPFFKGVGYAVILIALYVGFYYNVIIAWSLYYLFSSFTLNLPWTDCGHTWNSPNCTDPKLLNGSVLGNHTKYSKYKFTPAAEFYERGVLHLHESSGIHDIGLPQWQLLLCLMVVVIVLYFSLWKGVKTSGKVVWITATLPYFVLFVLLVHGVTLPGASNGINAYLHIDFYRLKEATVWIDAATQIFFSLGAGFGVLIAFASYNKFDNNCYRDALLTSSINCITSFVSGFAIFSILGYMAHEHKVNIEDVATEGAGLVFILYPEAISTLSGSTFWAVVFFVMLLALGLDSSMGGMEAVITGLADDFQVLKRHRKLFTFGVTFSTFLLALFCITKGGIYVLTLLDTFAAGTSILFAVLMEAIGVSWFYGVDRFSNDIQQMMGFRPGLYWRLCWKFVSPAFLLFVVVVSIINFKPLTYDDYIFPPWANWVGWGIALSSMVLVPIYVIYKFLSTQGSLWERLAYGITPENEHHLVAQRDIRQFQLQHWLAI

| IC50 (hNET [1]) [nM] | Ki (hNET [2]) [nM] | IC50 (hSERT [3]) [nM] | Ki (hSERT [4]) [nM] | SMILES |
| --- | --- | --- | --- | --- |
| – | ≤ 10 | – | ≤ 100 | Clc1ccc(O[C@@H](C2CC2)[C@H]2CCNC2)c(C2CCCCC2)c1 [Example 16-43, (S)-3-[(S)-(4-Chloro-2-cyclohexylphenoxy)cyclopropylmethyl]pyrrolidine] |
| – | ≤ 10 | – | ≤ 100 | Cc1cccc(Cl)c1O[C@@H](C1CC1)[C@H]1CCNC1 [Example 16-45, (S)-3-[(S)-(2-Chloro-6-methylphenoxy)cyclopropylmethyl]pyrrolidine] |
| – | ≤ 10 | – | ≤ 100 | Cc1ccc(Cl)c(O[C@@H](C2CC2)[C@H]2CCNC2)c1F [Example 16-68, (S)-3-[(S)-(6-Chloro-2-fluoro-3-methylphenoxy)cyclopropylmethyl]pyrrolidine] |
| – | ≤ 10 | – | ≤ 100 | Cc1ccc(Cl)c(O[C@H](C2CC2)[C@H]2CCNC2)c1F [Example 16-69, (S)-3-[(R)-(6-Chloro-2-fluoro-3-methylphenoxy)cyclopropylmethyl]pyrrolidine] |
| – | ≤ 10 | – | ≤ 100 | COc1ccc(Cl)c(O[C@@H](C2CC2)[C@H]2CCNC2)c1F [Example 16-70, (S)-3-[(S)-(6-Chloro-2-fluoro-3-methoxyphenoxy)cyclopropylmethyl]pyrrolidine] |
| – | ≤ 100 | – | ≤ 10 | Clc1cc(Cl)c(O[C@@H](C2CC2)[C@H]2CCNC2)cc1Cl [Example 16-71, (S)-3-[(S)cyclopropyl-(2,4,5-trichlorophenoxy)methyl]pyrrolidine] |
| – | ≤ 10 | – | ≤ 10 | Fc1cc(Cl)cc(Cl)c1O[C@@H](C1CC1)[C@H]1CCNC1 [Example 16-75, (S)-3-[(S)cyclopropyl-(2,4-dichloro-6-fluorophenoxy)methyl]pyrrolidine] |
| – | ≤ 100 | – | ≤ 10 | Cc1cc(Cl)cc(C)c1O[C@@H](C1CC1)[C@H]1CCNC1 [Example 16-82, (S)-3-[(S)-(4-Chloro-2,6-dimethylphenoxy)cyclopropylmethyl]pyrrolidine] |
| – | ≤ 100 | – | ≤ 10 | Cc1cc(O[C@@H](C2CC2)[C@H]2CCNC2)c(Cl)c(C)c1Cl [Example 16-83, (S)-3-[(S)cyclopropyl-(2,4-dichloro-3,5-dimethylphenoxy)-methyl]pyrrolidine] |
| – | ≤ 100 | – | ≤ 10 | Fc1ccc(O[C@H](C2CC2)[C@@H]2CCNC2)cc1Cl [Example 16-90, (R)-3-[(R)-(3-Chloro-4-fluorophenoxy)cyclopropylmethyl]pyrrolidine] |
| – | ≤ 100 | – | ≤ 10 | Fc1cc(O[C@H](C2CC2)[C@@H]2CCNC2)ccc1Cl [Example 16-92, (R)-3-[(R)-(4-Chloro-3-fluorophenoxy)cyclopropylmethyl]pyrrolidine] |
| – | ≤ 100 | – | ≤ 10 | Clc1ccc(O[C@H](C2CC2)[C@H]2CCNC2)cc1 [Example 16-102, (S)-3-[(R)-(4-Chlorophenoxy)cyclopropylmethyl]pyrrolidine] |
| – | ≤ 100 | – | ≤ 10 | FC(F)(F)c1ccc(O[C@@H](C2CC2)[C@H]2CCNC2)cc1 [Example 16-104, (S)-3-[(S)cyclopropyl-(4-trifluoromethylphenoxy)methyl]pyrrolidine] |
| – | ≤ 10 | – | ≤ 100 | Fc1ccccc1O[C@H](C1CCCCC1)[C@H]1CCNC1 [Example 20-1, (S)-3-[(R)-Cyclohexyl-(2-fluorophenoxy)methyl]pyrrolidine] |
| – | ≤ 100 | – | ≤ 100 | COc1ccccc1OC(C1CCCCC1)C1CCNC1 (stereo not drawn) [Example 20-2, 3-[Cyclohexyl-(2-methoxyphenoxy)methyl]pyrrolidine] |
| – | ≤ 10 | – | ≤ 100 | O=[N+]([O-])c1ccccc1O[C@H](C1CCCCC1)[C@H]1CCNC1 [Example 20-3, (S)-3-[(R)-Cyclohexyl-(2-nitrophenoxy)methyl]pyrrolidine] |
| – | ≤ 10 | – | ≤ 100 | CC(=O)c1ccccc1O[C@@H](C1CCCCC1)[C@@H]1CCNC1 [Example 20-4, 1-[2-((R)-Cyclohexyl-(S)-pyrrolidin-3-yl-methoxy)phenyl]ethanone] |
| – | ≤ 10 | – | ≤ 10 | Clc1cc(Cl)cc(OC(C2CCCCC2)C2CCNC2)c1 (stereo not drawn) [Example 20-6, 3-[Cyclohexyl-(3,5-dichlorophenoxy)methyl]pyrrolidine] |
| – | ≤ 10 | – | ≤ 100 | Fc1cccc(O[C@H](C2CCCCC2)[C@H]2CCNC2)c1 [Example 20-7, (S)-3-[(R)-Cyclohexyl-(3-fluorophenoxy)methyl]pyrrolidine] |
| – | ≤ 10 | – | ≤ 100 | Clc1ccc(O[C@@H](C2CC2)[C@H]2CCNC2)c2ccccc12 [Example 23-2, (S)-3-[(S)-(4-Chloronaphthalen-1-yloxy)cyclopropylmethyl]pyrrolidine] |
| – | ≤ 100 | – | ≤ 10 | C=CC[C@@H](Oc1ccc(Cl)cc1C)[C@H]1CCNC1 [Example 25-2, (S)-3-[(R)-1-(4-Chloro-2-methylphenoxy)but-3-enyl]pyrrolidine] |
| – | ≤ 100 | – | ≤ 10 | C#CC(Oc1ccc(Cl)cc1C)[C@H]1CCNC1 (stereo partly drawn) [Example 27-2, (S)-3-[1-(4-Chloro-2-methylphenoxy)prop-2-ynyl]pyrrolidine] |

The remaining lines, values behind:

| SMILES | IC50 (hNET [1]) [nM] | Ki (hNET [2]) [nM] | IC50 (hSERT [3]) [nM] | Ki (hSERT [4]) [nM] |
| --- | --- | --- | --- | --- |
| CC[C@H](Oc1ccc(Cl)cc1Cl)[C@H]1CCNC1 [Example 1, (S)-3-[(S)-1-(2,4-Dichlorophenoxy)propyl]pyrrolidine] | ≤ 10 | ≤ 10 | ≤ 10 | ≤ 10 |
| CC[C@H](Oc1cccc(Cl)c1)[C@H]1CCNC1 [Example 2-1, (S)-3-[(S)-1-(3-Chlorophenoxy)propyl]pyrrolidine] | ≤ 10 | ≤ 10 | ≤ 100 | ≤ 100 |
| CC[C@H](Oc1ccc(Cl)cc1)[C@H]1CCNC1 [Example 2-2, (S)-3-[(S)-1-(4-Chlorophenoxy)propyl]pyrrolidine] | ≤ 10 | ≤ 10 | ≤ 10 | ≤ 10 |
| CC[C@H](Oc1ccc(Cl)c(F)c1)[C@H]1CCNC1 [Example 2-5, (S)-3-[(S)-1-(4-Chloro-3-fluorophenoxy)propyl]pyrrolidine] | ≤ 10 | ≤ 10 | ≤ 10 | ≤ 10 |
| CC[C@H](Oc1ccc(Cl)c(Cl)c1)[C@H]1CCNC1 [Example 2-7, (S)-3-[(S)-1-(3,4-Dichlorophenoxy)propyl]pyrrolidine] | ≤ 10 | ≤ 10 | ≤ 10 | ≤ 10 |
| CC[C@H](Oc1ccc(Cl)c(C)c1)[C@H]1CCNC1 [Example 2-13, (S)-3-[(S)-1-(4-Chloro-3-methylphenoxy)propyl]pyrrolidine] | ≤ 10 | ≤ 10 | ≤ 10 | ≤ 10 |
| CC[C@H](Oc1cc(Cl)cc(Cl)c1)[C@H]1CCNC1 [Example 2-18, (S)-3-[(S)-1-(3,5-Dichlorophenoxy)propyl]pyrrolidine] | ≤ 100 | ≤ 100 | ≤ 100 | ≤ 10 |
| CC[C@@H](Oc1cc(Cl)cc(Cl)c1)[C@@H]1CCNC1 [Example 2-19, (R)-3-[(R)-1-(3,5-Dichlorophenoxy)propyl]pyrrolidine] | ≤ 100 | ≤ 10 | ≤ 100 | ≤ 10 |
| CC[C@H](Oc1ccc(F)c(Cl)c1)[C@H]1CCNC1 [Example 2-21, (S)-3-[(S)-1-(3-Chloro-4-fluorophenoxy)propyl]pyrrolidine] | ≤ 10 | ≤ 10 | ≤ 100 | ≤ 10 |
| CC[C@H](Oc1cc(F)c(OC)c(F)c1)[C@H]1CCNC1 [Example 2-22, (S)-3-[(S)-1-(3,5-Difluoro-4-methoxyphenoxy)propyl]pyrrolidine] | ≤ 10 | ≤ 10 | ≤ 100 | ≤ 10 |
| CC[C@H](Oc1ccccc1Cl)[C@H]1CCNC1 [Example 2-23, (S)-3-[(S)-1-(2-Chlorophenoxy)propyl]pyrrolidine] | ≤ 10 | ≤ 10 | ≤ 100 | ≤ 10 |
| CC[C@H](Oc1c(F)cccc1Cl)[C@H]1CCNC1 [Example 2-25, (S)-3-[(S)-1-(2-Chloro-6-fluorophenoxy)-propyl]pyrrolidine] | ≤ 10 | ≤ 10 | ≤ 100 | ≤ 10 |
| CC[C@H](Oc1c(C)cccc1Cl)[C@H]1CCNC1 [Example 2-27, (S)-3-[(S)-1-(2-Chloro-6-methylphenoxy)propyl]pyrrolidine] | ≤ 10 | ≤ 10 | ≤ 100 | ≤ 10 |
| CC[C@H](Oc1cccc(Cl)c1Cl)[C@H]1CCNC1 [Example 2-28, (S)-3-[(S)-1-(2,3-Dichlorophenoxy)propyl]pyrrolidine] | ≤ 10 | ≤ 10 | ≤ 10 | ≤ 10 |
| CC(C)CC(Oc1cccc(F)c1)C1CCNC1 (stereo not drawn) [Example 10-26, 3-[1-(3-Fluorophenoxy)-3-methylbutyl]pyrrolidine] | ≤ 10 | – | ≤ 10 | ≤ 10 |
| FC1(F)CCC(C(Oc2cc(Cl)cc(Cl)c2)C2CCNC2)CC1 (stereo not drawn) [Example 21, 3-[(3,5-Dichloro-phenoxy)-(4,4-difluorocyclohexyl)methyl]pyrrolidine] | – | ≤ 10 | – | ≤ 10 |
